This is an account of results in article PMC9610606, “Design, Synthesis, In Silico Testing, and In Vitro Evaluation of Thiazolidinone-Based Benzothiazole Derivatives as Inhibitors of α-Amylase and α-Glucosidase” (Pharmaceuticals, 2022).

In general, IC50 refers to the concentration at which inhibition is half-maximal. Read a high IC50 as lower potency. Usually melting point stands for the temperature of the solid-liquid transition.

One data set concerns the target T1, α-amylase (Sus scrofa, UniProt P00690).
T1 sequence (P00690 16-511): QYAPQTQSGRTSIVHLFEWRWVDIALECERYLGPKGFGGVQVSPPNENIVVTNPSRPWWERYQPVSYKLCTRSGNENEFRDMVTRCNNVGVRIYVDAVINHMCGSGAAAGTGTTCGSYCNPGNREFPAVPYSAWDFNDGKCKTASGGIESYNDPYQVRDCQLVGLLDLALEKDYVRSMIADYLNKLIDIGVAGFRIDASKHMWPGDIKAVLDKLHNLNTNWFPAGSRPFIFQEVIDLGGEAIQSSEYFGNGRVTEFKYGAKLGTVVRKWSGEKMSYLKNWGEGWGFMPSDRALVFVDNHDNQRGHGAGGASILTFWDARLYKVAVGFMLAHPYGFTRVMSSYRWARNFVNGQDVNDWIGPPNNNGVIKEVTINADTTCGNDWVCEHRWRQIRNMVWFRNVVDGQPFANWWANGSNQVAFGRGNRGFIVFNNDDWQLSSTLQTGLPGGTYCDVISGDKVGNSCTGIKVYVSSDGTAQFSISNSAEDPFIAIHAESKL
The data set is described as follows: In vitro α-amylase inhibitory assay. The data set is classed as biochemical. The procedure:
(§1) Biological profile of all the candidates were obtained through experimental-based analysis, as described in the inhibitory assay (5.3 and 5.4). […]
absorbance was recorded using an ELISA microplate reader at 540 nm. […]
the standard. All the reactions were carried out in triplicates. The reaction mixture, devoid of the test sample, served as control. […]
(§2) PDB format. The process was further carried out in auto dock in which polar hydrogen and Kollman and Gasteiger charges were add ed to protein. Selected ligand was also prepared done by using torsion tree to detect root. Moreover, configuration file was generated along with X, Y and Z axis save both ligand and protein in PDBQT format in the same docking folder. At the end

The target of the next data set is α-glucosidase (Saccharomyces cerevisiae, UniProt P53341). The format is biochemical. The procedure: as §1
5.4 α-glucosidase inhibitory assay protocol
10 µl of the α-glucosidase enzyme, 20 µl of test samples (10-50 µg/ml) and 50 µl, of 0.1M […]
nitrophenyl—D-g lucopy ranoside solution was fu rther added as a substrate and again incubated for 20 min at 37 °C. Sodium carbonate (50 µl of 0.1M) was added to terminate the reaction. P- […]
conditions by omitting test samples. All the experiments were carried out in triplicates. The percentage inhibition was calculated by the formula.
% Inhibition = [(Ac – As) /Ac] × 100 Ac-absorbance for control, As-absorbance for standard. […]
as §2

Sequence of α-glucosidase (P53341 whole entry): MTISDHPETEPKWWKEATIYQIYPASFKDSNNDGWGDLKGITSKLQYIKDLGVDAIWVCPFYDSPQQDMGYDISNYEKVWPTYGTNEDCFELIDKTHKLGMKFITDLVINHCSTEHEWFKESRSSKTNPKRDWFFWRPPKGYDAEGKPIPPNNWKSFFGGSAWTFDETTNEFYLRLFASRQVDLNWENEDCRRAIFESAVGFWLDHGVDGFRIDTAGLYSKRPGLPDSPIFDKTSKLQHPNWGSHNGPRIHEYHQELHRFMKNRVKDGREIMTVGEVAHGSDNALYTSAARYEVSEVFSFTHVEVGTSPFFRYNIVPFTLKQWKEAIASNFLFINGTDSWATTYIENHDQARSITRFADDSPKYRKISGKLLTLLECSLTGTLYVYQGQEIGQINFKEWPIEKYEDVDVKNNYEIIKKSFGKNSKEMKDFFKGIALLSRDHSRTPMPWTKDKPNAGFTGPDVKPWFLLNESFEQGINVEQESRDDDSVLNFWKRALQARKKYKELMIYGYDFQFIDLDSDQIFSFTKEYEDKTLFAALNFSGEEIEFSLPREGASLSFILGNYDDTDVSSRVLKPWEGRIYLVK

On to “(2Z,5Z)-5-((5-nitrobenzo [d]thiazol-6-yl) methylene)-2-(thiazol-2-ylimino)thiazolidin-4-one [Compound 1]”, for which the results for the half-maximal inhibitory concentration (IC50) at α-amylase and against α-glucosidase were 7.7 ± 0.2 µM and 8.8 ± 0.2 µM, respectively. In the case of `CN(C)c1cc(/C=C2\S/C(=N\c3nccs3)NC2=O)cc2scnc12` [Compound 10, (2Z,5Z)-5-((4-(dimethylamino)benzo[d]thiazol-6-yl)methylene)-2-(thiazol-2-ylimino)thiazolidin-4-one], the melting point fell in the range of 227 to 228 °C.

Take “(2Z,5Z)-5-((7-hydroxy-4-(trifluoromethyl)benzo[d]thiazol-6-yl)methylene)-2-(thiazol-2-ylimino)thiazolidin-4-one [Compound 6]”: the concentration for half-maximal inhibition (IC50) was found to be 2.1 ± 0.7 µM against α-amylase and 3.2 ± 0.7 µM against α-glucosidase. `N#Cc1cccc(-c2c(/C=C3\S/C(=N\c4nccs4)NC3=O)ccc3ncsc23)c1` [Compound 15, 3-(6-((Z)-((Z)-4-oxo-2-(thiazol-2-ylimino)thiazolidin-5-ylidene)methyl)benzo[d]thiazol-7-yl)benzonitrile] gave a melting point of 243 to 244 °C.

Turning to `O=C1N/C(=N/c2nccs2)S/C1=C\c1ccc2ncsc2c1-c1cccc([N+](=O)[O-])c1Cl` [Compound 9, (2Z,5Z)-5-((7-(2-chloro-3-nitrophenyl)benzo[d]thiazol-6-yl)methylene)-2-(thiazol-2-ylimino)thiazolidin-4-one], the melting point lay in the range of 241 to 242 °C.
